# Measured values: patent US20220235011A1, “PHTHALAZINONE COMPOUNDS AND USE THEREOF” (ST PHARM CO., LTD., priority 2019, published 2022)
# Structures can show the parent of a compound that is named as a salt.
# Target: T1, Sirt6 (Homo sapiens, UniProt Q8N6T7)
# T1 construct: purchased CycLex CY-1156V2
# Assay: Measurement of Sirt6 Activity (CycLex Sirt6 Deacetylase Fluorometric Assay Kit)
# Type: biochemical
# Details: compound at 10 μM; fluorescence relative to the group without compound treatment (positive control group)
# Method in brief: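 Recombinant Sirt6 with fluoro-labelled acetyl-lysine peptide, NAD and lysylendopeptidase developer, compound added from 10× stock in PBS; 1 h at room temperature. Fluorescence read at ex 490/em 530 nm; activation expressed as fluorescence ratio relative to enzyme without compound.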
# T1 sequence (Q8N6T7 whole entry): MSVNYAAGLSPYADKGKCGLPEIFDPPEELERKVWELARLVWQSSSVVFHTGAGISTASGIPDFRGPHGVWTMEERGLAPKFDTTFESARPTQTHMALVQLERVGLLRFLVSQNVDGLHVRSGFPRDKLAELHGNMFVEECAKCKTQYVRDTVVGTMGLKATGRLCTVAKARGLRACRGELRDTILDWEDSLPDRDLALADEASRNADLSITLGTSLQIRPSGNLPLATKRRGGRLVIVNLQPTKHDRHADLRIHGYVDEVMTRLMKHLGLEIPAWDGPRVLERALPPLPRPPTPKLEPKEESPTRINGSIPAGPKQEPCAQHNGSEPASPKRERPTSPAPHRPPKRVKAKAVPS
row,SMILES,"Sirt6 Activity (% activity, 10 μM)"
1,"O=C1OCCN1c1cccc(-c2nn(-c3ccc(F)cc3)c(=O)c3ccccc23)c1 [Example 161, 3-(3-(3-(4-Fluorophenyl)-4-oxo-3,4-dihydrophthalazin-1-yl)phenyl)oxazolidin-2-one]",177 % activity
2,"Cl.N[C@@H]1CCCCN(c2nn(-c3ccc(F)cc3)c(=O)c3ccccc23)C1 [Example 162, (R)-4-(3-Aminoazepan-1-yl)-2-(4-fluorophenyl)phthalazin-1(2H)-one-hydrochloride]",205.5 % activity
3,"CC(C)(C(N)=O)c1cccc(-c2nn(C3CCCCC3)c(=O)c3ccccc23)c1 [Example 163, 2-(3-(3-Cyclohexyl-4-oxo-3,4-dihydrophthalazin-1-yl)phenyl)-2-methylpropanamide]",277 % activity
4,"CNC(=O)C(C)(C)c1cccc(-c2nn(C3CCCCC3)c(=O)c3ccccc23)c1 [Example 164, 2-(3-(3-Cyclohexyl-4-oxo-3,4-dihydrophthalazin-1-yl)phenyl)-N,2-dimethylpropanamide]",285.5 % activity
5,"Cl.N[C@@H]1CCCCN(c2nn(-c3ccc(F)cc3F)c(=O)c3ccccc23)C1 [Example 165, (R)-4-(3-Aminoazepan-1-yl)-2-(2,4-difluorophenyl)phthalazin-1(2H)-one-hydrochloride]",277.1 % activity
6,"CC(C)(C(=O)O)c1cccc(-c2nn(-c3ccc(F)cc3F)c(=O)c3ccccc23)c1 [Example 166, 2-(3-(3-(2,4-Difluorophenyl)-4-oxo-3,4-dihydrophthalazin-1-yl)phenyl)-2-methylpropanoic Acid]",239.2 % activity
7,"Cl.NC1CCCCN(c2nn(-c3ccc(F)cc3F)c(=O)c3ccccc23)C1 (stereo not shown) [Example 167, 4-(3-Aminoazepan-1-yl)-2-(2,4-difluorophenyl)phthalazin-1(2H)-one-hydrochloride]",249.4 % activity
8,"CC(C)(C#N)c1cccc(-c2nn(-c3ccc(F)cc3F)c(=O)c3ccccc23)c1 [Example 168, 2-(3-(3-(2,4-Difluorophenyl)-4-oxo-3,4-dihydrophthalazin-1-yl)phenyl)-2-methylpropanenitrile]",155.7 % activity
9,"CC(C)(c1cccc(-c2nn(-c3ccc(F)cc3F)c(=O)c3ccccc23)c1)c1nnn[nH]1 [Example 169, 4-(3-(2-(1H-Tetrazol-5-yl)propan-2-yl)phenyl)-2-(2,4-difluorophenyl)phthalazin-1(2H)-one]",211.3 % activity
10,"CC(C)(/C(N)=N\O)c1cccc(-c2nn(-c3ccc(F)cc3F)c(=O)c3ccccc23)c1 [Example 170, (E)-2-(3-(3-(2,4-Difluorophenyl)-4-oxo-3,4-dihydrophthalazin-1-yl)phenyl)-N′-hydroxy-2-methyl propanimideamide]",262.7 % activity
11,"CC(C)(C(=O)O)c1cccc(-c2nn(-c3ccccc3F)c(=O)c3ccccc23)c1 [Example 171, 2-(3-(3-(2-Fluorophenyl)-4-oxo-3,4-dihydrophthalazin-1-yl)phenyl)-2-methylpropanoic Acid]",134.7 % activity
12,"Cl.NC1CCCCN(c2nn(C3CCC3)c(=O)c3ccccc23)C1 (stereo not shown) [Example 172, 4-(3-Aminoazepan-1-yl)-2-cyclobutyl phthalazin-1(2H)-one-hydrochloride]",99.5 % activity
13,"Cl.NC1CCCCN(c2nn(C3CCCC3)c(=O)c3ccccc23)C1 (stereo not shown) [Example 173, 4-(3-Aminoazepan-1-yl)-2-cyclopentyl phthalazin-1(2H)-one-hydrochloride]",112.2 % activity
14,"Cc1nc(C(C)(C)c2cccc(-c3nn(-c4ccc(F)cc4F)c(=O)c4ccccc34)c2)no1 [Example 174, 2-(2,4-Difluorophenyl)-4-(3-(2-(5-methyl-1,2,4-oxadiazol-3-yl)propan-2-yl)phenyl)phthalazin-1(2H)-one]",114.2 % activity
15,"Cl.N[C@@H]1CCCCN(c2nn(-c3ccccc3F)c(=O)c3ccccc23)C1 [Example 175, (R)-4-(3-Aminoazepan-1-yl)-2-(2-fluorophenyl)phthalazin-1(2H)-one-hydrochloride]",155.3 % activity
16,"CC(C)NC(=O)C(C)(C)c1cccc(-c2nn(-c3ccc(F)cc3F)c(=O)c3ccccc23)c1 [Example 176, 2-(3-(3-(2,4-Difluorophenyl)-4-oxo-3,4-dihydrophthalazin-1-yl)phenyl)-N-isopropyl-2-methylpropanamide]",244.30 % activity
17,"CC(C)(C(=O)NC1CC1)c1cccc(-c2nn(-c3ccc(F)cc3F)c(=O)c3ccccc23)c1 [Example 178, N-Cyclopropyl-2-(3-(3-(2,4-difluorophenyl)-4-oxo-3,4-dihydrophthalazin-1-yl)phenyl)-2-methyl Propanamide]",331.00 % activity
18,"CC(C)(C(=O)NCCO)c1cccc(-c2nn(-c3ccc(F)cc3F)c(=O)c3ccccc23)c1 [Example 186, 2-(3-(3-(2,4-Difluorophenyl)-4-oxo-3,4-dihydrophthalazin-1-yl)phenyl)-N-(2-hydroxyethyl)-2-methyl Propanamide]",305.80 % activity

# More lines, now with the values ahead:
row,"Sirt6 Activity (% activity, 10 μM)",SMILES
1,241.6 % activity,"CC(C)(C(=O)N1CCCC1)c1cccc(-c2nn(-c3ccc(F)cc3F)c(=O)c3ccccc23)c1 [Example 177, 2-(2,4-Difluorophenyl)-4-(3-(2-methyl-1-oxo-1-(pyrrolidin-1-yl)propan-2-yl)phenyl)phthalazin-1(2H)-one]"
2,221.60 % activity,"CC(C)(C(=O)N1CCOCC1)c1cccc(-c2nn(-c3ccc(F)cc3F)c(=O)c3ccccc23)c1 [Example 179, 2-(2,4-Difluorophenyl)-4-(3-(2-methyl-1-morpholino-1-oxopropan-2-yl)phenyl)phthalazin-1(2H)-one]"
3,133.30 % activity,"CC(C)(C(=O)NC1CCCCC1)c1cccc(-c2nn(-c3ccc(F)cc3F)c(=O)c3ccccc23)c1 [Example 180, N-Cyclohexyl-2-(3-(3-(2,4-difluorophenyl)-4-oxo-3,4-dihydrophthalazin-1-yl)phenyl)-2-methylpropanamide]"
4,122.10 % activity,"CC(C)(C(=O)Nc1ccccc1)c1cccc(-c2nn(-c3ccc(F)cc3F)c(=O)c3ccccc23)c1 [Example 181, 2-(3-(3-(2,4-difluorophenyl)-4-oxo-3,4-dihydrophthalazin-1-yl)phenyl)-2-methyl-N-phenylpropanamide]"
5,219.60 % activity,"Cn1cc(NC(=O)C(C)(C)c2cccc(-c3nn(-c4ccc(F)cc4F)c(=O)c4ccccc34)c2)cn1 [Example 182, 2-(3-(3-(2,4-Difluorophenyl)-4-oxo-3,4-dihydrophthalazin-1-yl)phenyl)-2-methyl-N-(1-methyl-1H-pyrazol-4-yl)propanamide]"
6,194.70 % activity,"O=C(O)C1(c2cccc(-c3nn(-c4ccc(F)cc4F)c(=O)c4ccccc34)c2)CC1 [Example 183, 1-(3-(3-(2,4-Difluorophenyl)-4-oxo-3,4-dihydrophthalazin-1-yl)phenyl)cyclopropan-1-carboxylic Acid]"
7,176.80 % activity,"O=c1c2ccccc2c(N2CCCNCC2)nn1-c1ccc(F)cc1F [Example 184, 4-(1,4-Diazepan-1-yl)-2-(2,4-difluorophenyl)phthalazin-1(2H)-one-hydrochloride]"
8,273.80 % activity,"Cl.N[C@@H]1CCCCN(c2nn(-c3ccc(Cl)cc3)c(=O)c3ccccc23)C1 [Example 185, (R)-4-(3-Aminoazepan-1-yl)-2-(4-chlorophenyl)phthalazin-1(2H)-one-hydrochloride]"
9,303.80 % activity,"CCS(=O)(=O)N[C@@H]1CCCCN(c2nn(-c3ccc(F)cc3F)c(=O)c3ccccc23)C1 [Example 187, (R)—N-(1-(3-(2,4-Difluorophenyl)-4-oxo-3,4-dihydrophthalazin-1-yl)azepan-3-yl)ethanesulfonamide]"
10,358.40 % activity,"CC(C)(C(N)=O)c1cccc(-c2nn(-c3ccc(F)cc3F)c(=O)c3ccccc23)c1 [Example 188, 2-(3-(3-(2,4-Difluorophenyl)-4-oxo-3,4-dihydrophthalazin-1-yl)phenyl)-2-methylpropanamide]"
11,273.70 % activity,"CN[C@@H]1CCCCN(c2nn(-c3ccc(F)cc3F)c(=O)c3ccccc23)C1 [Example 189, (R)-2-(2,4-Difluorophenyl)-4-(3-(methylamino)azepan-1-yl)phthalazin-1(2H)-one-hydrochloride]"
12,332.60 % activity,"O=c1c2ccccc2c(N2CCCCC(O)C2)nn1-c1ccc(F)cc1F (stereo not shown) [Example 190, 2-(2,4-Difluorophenyl)-4-(3-hydroxyazepan-1-yl)phthalazin-1(2H)-one]"
13,312.70 % activity,"Cl.O=c1c2ccccc2c(N2CCCC[C@@H](NCCO)C2)nn1-c1ccc(F)cc1F [Example 191, (R)-2-(2,4-Difluorophenyl)-4-(3-((2-hydroxyethyl)amino)azepan-1-yl)phthalazin-1(2H)-one-hydro Chloride]"
14,286.60 % activity,"CC(=O)N[C@@H]1CCCCN(c2nn(-c3ccc(F)cc3F)c(=O)c3ccccc23)C1 [Example 192, (R)—N-(1-(3-(2,4-Difluorophenyl)-4-oxo-3,4-dihydrophthalazin-1-yl)azepan-3-yl)acetamide]"
15,206.10 % activity,"O=C1CCCCN(c2nn(-c3ccc(F)cc3F)c(=O)c3ccccc23)C1 [Example 193, 2-(2,4-Difluorophenyl)-4-(3-oxoazepan-1-yl)phthalazin-1 (2H)-one]"
16,350.20 % activity,"CC(C)(C(=O)O)c1cccc(-c2nn(-c3ccc(Cl)cc3)c(=O)c3ccccc23)c1 [Example 194, 2-(3-(3-(4-Chlorophenyl)-4-oxo-3,4-dihydrophthalazin-1-yl)phenyl)-2-methylpropanoic Acid]"
